The test system of test [1] is rumen microorganisms (mixed microbial population of rumen contents). The experiment in a line: Enhancement of intraruminal propionic acid production, batch culture fermentation of rumen contents. The class given is cell-based, bovine (rumen-fistulated). The note with it: 9 h, 39° C. Here is the method:
Enhancement of intraruminal propionic acid production is determined using a batch culture fermentation system. Rumen contents from a rumen-fistulated bovine are mixed with an equal amount of buffer which contains mineral, energy and nitrogen sources required for continued growth and metabolism of the mixed microbial population. Aliquots of this inoculum then are transferred to incubation vessels containing appropriate amounts of sodium laidlomycin (Na L.) (see Example 1A), and L. butyrate (L.C4) (prepared according to the procedure of Example 1A). After 9 hours of incubation at 39° C., concentrations of individual volatile fatty acids in each incubation vessel are determined by gas-liquid chromatography. The net production of each individual volatile fatty acid (acetic [AA], propionic [PA] and butyric [BA]) is calculated as the difference between the concentration after incubation and the concentration before incubation. The molar percentage of propionic acid produced is calculated from the following equation: [formula]
The comparative activities of sodium laidlomycin (Na L.) and the laidlomycin butyrate upon propionic acid and lactic acid production are set forth in Tables 1 and 2 where the concentration is in micrograms per ml (μg/ml).
(§1) The procedure of Example 2 was followed to compare laidlomycin (L.), sodium L. (Na L.), L.-propionate (L.C3), L. butyrate (L.C4), L. isobutyrate (L. isoC4), L. pentanoate (L.C5) and L. hexanoate (L.C6).
(§2) The procedure of Example 2 was followed to compare the activities of L. heptanoate (L. C7), L. octanoate (L. C8), L. decanoate (L. C10) and L. dodecanoate (L. C12) in increasing propionic acid production and inhibiting lactic acid production.
(§3) The procedure of Example 2 was followed to compare the activities of laidlomycin (L.) acetate (L. C2), L. pentanoate (L. C5), L. stearate (L. C18), L. cyclobutylcarboxylate, L. cyclopentylcarboxylate, L. cyclohexylcarboxylate and L. cyclopropylcarboxylate.

Test [2] has as its system rumen contents (lactic acid accumulation). The experiment in a line: Inhibition of lactic acid accumulation, second batch culture fermentation of rumen contents with glucose. The note with it: 6 h, 39° C.; for Lactic Acid Accumulation (μ mol/ml): Table 8, 0 μg/ml: 40.47. It counts as cell-based, bovine (rumen fistulated). Here is the method: Inhibition of lactic acid accumulation is determined using a second batch culture fermentation system. Rumen contents from a rumen fistulated bovine are mixed with an equal amount of buffer which contains a 150 mM concentration of glucose. Following 6 hours of incubation at 39° C., lactic acid produced in the fermentation is analyzed by a specific enzymatic assay. The concentration of lactic acid in the fermentation broth is quantified by the increase in absorbance of light at […] when nicotinamide adenine dinucleotide is reduced by lactic acid with the aid of lactate dehydrogenase. […]
as §1, §2, §3

Setting [3] is: Table 7, 1.25 μg/ml, 0 μg/ml: 36.1.
Setting [4] is: Table 7, 2.5 μg/ml, 0 μg/ml: 36.1.
Setting [5] is: Table 7, 5 μg/ml, 0 μg/ml: 36.1.
Setting [6] is: Table 7, 10 μg/ml, 0 μg/ml: 36.1.
Setting [7] is: Table 7, 20 μg/ml, 0 μg/ml: 36.1.
[8] abbreviates: Table 7, .313 μg/ml, 0 μg/ml: 36.1.
[9] abbreviates: Table 7, .625 μg/ml, 0 μg/ml: 36.1.

SMILES strings stand for the structures.

Turning to `CCC(=O)OC(C(C)C(=O)O)C(C)C1OC2(CCC(C)(C3CCC(C)(C4OC(C5OC(O)(COC(=O)C6CCC6)C(C)CC5C)CC4C)O3)O2)CC(O)C1C` (stereo not drawn) [Cyclobutylcarboxylate, laidlomycin cyclobutylcarboxylate], the “% Propionic Acid” value in test [1] (setting [3]) came to 50.0%; in test [1] (setting [4]) it was 52.5%; in test [1] (setting [5]) it was 51.7%; in test [1] (setting [6]), 51.8%; in test [1] (setting [7]) it was 51.2%; in test [1] (setting [8]), 47.5%. In test [1] (setting [9]), the “% Propionic Acid” value is 47.1%. The “Lactic Acid Accumulation (μ mol/ml)” value in test [2] (1.25 μg/ml) stood at 3.82 μ mol/ml; in test [2] (2.5 μg/ml), 4.01 μ mol/ml; in test [2] (5 μg/ml), 4.32 μ mol/ml; in test [2] (10 μg/ml), 4.73 μ mol/ml; in test [2] (20 μg/ml), 4.75 μ mol/ml; in test [2] (.313 μg/ml), 23.25 μ mol/ml. Also, the “Lactic Acid Accumulation (μ mol/ml)” value in test [2] (.625 μg/ml) is listed as 8.05 μ mol/ml.

Take `CCC(=O)OC(C(C)C(=O)O)C(C)C1OC2(CCC(C)(C3CCC(C)(C4OC(C5OC(O)(COC(=O)C6CCCCC6)C(C)CC5C)CC4C)O3)O2)CC(O)C1C` (stereo not drawn) [Cyclohexylcarboxylate, laidlomycin cyclohexylcarboxylate]: the “% Propionic Acid” value amounted to 50.1% in test [1] (setting [3]); 50.8% in test [1] (setting [4]); 51.6% in test [1] (setting [5]); 51.8% in test [1] (setting [6]); 53.3% in test [1] (setting [7]); 47.2% in test [1] (setting [8]). In addition, the “% Propionic Acid” value in test [1] (setting [9]) worked out at 49.0%. Further, the “Lactic Acid Accumulation (μ mol/ml)” value is 3.74 μ mol/ml in test [2] (1.25 μg/ml); 4.40 μ mol/ml in test [2] (2.5 μg/ml); 4.83 μ mol/ml in test [2] (5 μg/ml); 4.97 μ mol/ml in test [2] (10 μg/ml); 5.72 μ mol/ml in test [2] (20 μg/ml); 35.55 μ mol/ml in test [2] (.313 μg/ml). For the same compound, the “Lactic Acid Accumulation (μ mol/ml)” value in test [2] (.625 μg/ml) was determined as 12.78 μ mol/ml.

Take `CCC(=O)OC(C(C)C(=O)O)C(C)C1OC2(CCC(C)(C3CCC(C)(C4OC(C5OC(O)(COC(=O)C6CCCC6)C(C)CC5C)CC4C)O3)O2)CC(O)C1C` (stereo not drawn) [Cyclopentylcarboxylate, laidlomycin cyclopentylcarboxylate]: the “% Propionic Acid” value stood at 51.9% in test [1] (setting [3]); 50.3% in test [1] (setting [4]); 51.1% in test [1] (setting [5]); 51.6% in test [1] (setting [6]); 50.0% in test [1] (setting [7]); 47.1% in test [1] (setting [8]). Besides, in test [1] (setting [9]), the “% Propionic Acid” value is listed as 47.9%. Also, the “Lactic Acid Accumulation (μ mol/ml)” value in test [2] (1.25 μg/ml) is recorded as 3.63 μ mol/ml; in test [2] (2.5 μg/ml), 3.73 μ mol/ml; in test [2] (5 μg/ml), 4.08 μ mol/ml; in test [2] (10 μg/ml) it was 4.53 μ mol/ml; in test [2] (20 μg/ml), 9.66 μ mol/ml; in test [2] (.313 μg/ml) it was 24.75 μ mol/ml. Further, the “Lactic Acid Accumulation (μ mol/ml)” value in test [2] (.625 μg/ml) is listed as 6.79 μ mol/ml.

Consider `CCC(=O)OC(C(C)C(=O)O)C(C)C1OC2(CCC(C)(C3CCC(C)(C4OC(C5OC(O)(COC(=O)C6CC6)C(C)CC5C)CC4C)O3)O2)CC(O)C1C` (stereo not drawn) [Cyclopropylcarboxylate, laidlomycin cyclopropylcarboxylate], for which the “% Propionic Acid” value in test [1] (setting [3]) is reported as 49.7%; in test [1] (setting [4]), 49.3%; in test [1] (setting [5]), 50.9%; in test [1] (setting [6]), 49.6%; in test [1] (setting [7]), 50.7%; in test [1] (setting [8]), 47.7%. The “% Propionic Acid” value in test [1] (setting [9]) is recorded as 46.4%. Besides, the “Lactic Acid Accumulation (μ mol/ml)” value in test [2] (1.25 μg/ml) stood at 2.50 μ mol/ml; in test [2] (2.5 μg/ml), 3.16 μ mol/ml; in test [2] (5 μg/ml), 3.17 μ mol/ml; in test [2] (10 μg/ml) it was 3.53 μ mol/ml; in test [2] (20 μg/ml) it was 3.96 μ mol/ml; in test [2] (.313 μg/ml) it was 15.54 μ mol/ml. For the same compound, the “Lactic Acid Accumulation (μ mol/ml)” value in test [2] (.625 μg/ml) was 2.12 μ mol/ml.

Consider `CCC(=O)OC(C(C)C(=O)O)C(C)C1OC2(CCC(C)(C3CCC(C)(C4OC(C5OC(O)(COC(C)=O)C(C)CC5C)CC4C)O3)O2)CC(O)C1C` (stereo not drawn) [L. C2], for which the “% Propionic Acid” value in test [1] (setting [3]) worked out at 50.7%; in test [1] (setting [4]) it was 50.4%; in test [1] (setting [5]), 52.2%; in test [1] (setting [6]), 51.2%; in test [1] (setting [7]), 53.0%; in test [1] (setting [8]), 42.8%. In addition, the “% Propionic Acid” value in test [1] (setting [9]) was 47.1%. Besides, the “Lactic Acid Accumulation (μ mol/ml)” value in test [2] (1.25 μg/ml) turned out to be 6.89 μ mol/ml; in test [2] (2.5 μg/ml), 4.34 μ mol/ml; in test [2] (5 μg/ml) it was 4.35 μ mol/ml; in test [2] (10 μg/ml), 4.35 μ mol/ml; in test [2] (20 μg/ml), 5.28 μ mol/ml; in test [2] (.313 μg/ml), 41.19 μ mol/ml. For the same compound, in test [2] (.625 μg/ml), the “Lactic Acid Accumulation (μ mol/ml)” value is on record as 22.23 μ mol/ml.

Turning to `CCC(=O)OCC1(O)OC(C2CC(C)C(C3(C)CCC(C4(C)CCC5(CC(O)C(C)C(C(C)C(OC(=O)CC)C(C)C(=O)O)O5)O4)O3)O2)C(C)CC1C` (stereo not drawn) [L. C3, laidlomycin propionate], the “% Propionic Acid” value in test [1] (Table 3, 1.25 μg/ml, 0 μg/ml: 28.5) was 37.8%; in test [1] (Table 3, 5 μg/ml, 0 μg/ml: 28.5) it was 41.9%; in test [1] (Table 3, 20 μg/ml, 0 μg/ml: 28.5), 44.4%; in test [1] (Table 3, .31 μg/ml, 0 μg/ml: 28.5), 32.9%. For the same compound, the activity at 1.25 µg/mL in test [2] (Bos taurus, Table 4, 1.25 μg/ml, read-out: Accumulation of Lactic Acid - % of Control) is 14%. Besides, the activity at 5 µg/mL in test [2] (Bos taurus, Table 4, 5 μg/ml, read-out: Accumulation of Lactic Acid - % of Control) is 13%. Besides, in test [2] (Bos taurus, Table 4, 20 μg/ml, read-out: Accumulation of Lactic Acid - % of Control), the activity at 20 µg/mL was determined as 14%. Further, the activity at 0.31 µg/mL in test [2] (Bos taurus, Table 4, .31 μg/ml, read-out: Accumulation of Lactic Acid - % of Control) was 71%.

(Values after patent publication US4431665A, “Acylated laidlomycin derivatives” (priority 1980, dated 1984).)
